Source: publication PMC7954579 (Cancer chemotherapy and pharmacology, 2020)

Columns and labels:
HSP90 = details: cited from earlier work
HSP70 [1] = test: Soluble HSP70 protein in patient plasma by ELISA; format: in vivo, human
[2] = Plasma pharmacokinetics in patients; format: in vivo, human; details: for AUC / Cmax / half-life: human, plasma
[3] = twice-weekly schedule, monotherapy; cited from earlier work
[4] = IV, days 1, 4, 8, 11 of 21-day cycle, with AT7519 21 mg/m^2 (DL2)
HSP70 [5] = test: HSP70 protein in patient PBMCs by western blot; format: in vivo, human; details: after onalespib alone (C0D4), all dose levels
[6] = All dose levels, C0D1, onalespib alone, n = 27, geometric mean
[7] = All dose levels, C1D1, onalespib with AT7519, n = 24, geometric mean
[8] = All dose levels, C1D11, onalespib with AT7519, n = 16, geometric mean
[9] = DL1, C0D1, onalespib 40 mg/m^2 IV alone, n = 5, geometric mean
[10] = DL1, C1D1, onalespib 40 mg/m^2 with AT7519 21 mg/m^2, n = 4, geometric mean
[11] = DL1, C1D11, onalespib 40 mg/m^2 with AT7519 21 mg/m^2, n = 2, geometric mean
[12] = DL2, C0D1, onalespib 80 mg/m^2 IV alone, n = 17, geometric mean
[13] = DL2, C1D1, onalespib 80 mg/m^2 with AT7519 21 mg/m^2, n = 16, geometric mean
[14] = DL2, C1D11, onalespib 80 mg/m^2 with AT7519 21 mg/m^2, n = 11, geometric mean
[15] = DL3, C0D1, onalespib 80 mg/m^2 IV alone, n = 5, geometric mean
[16] = DL3, C1D1, onalespib 80 mg/m^2 with AT7519 27 mg/m^2, n = 4, geometric mean
[17] = DL3, C1D11, onalespib 80 mg/m^2 with AT7519 27 mg/m^2, n = 3, geometric mean

Q: What does the source list for `CC(C)c1cc(C(=O)N2Cc3ccc(CN4CCN(C)CC4)cc3C2)c(O)cc1O` [onalespib, (2,4-dihydroxy-5-isopropylphenyl)-[5-(4-methylpiperazin-1-ylmethyl)-1,3-dihydroisoindol-2-yl]methanone]?
A: IC50 (HSP90): 0.7 nM; HSP70 protein expression in plasma (HSP70 [1]; after onalespib alone (C0D4), all dose levels): Increased HSP70 protein expression; Soluble HSP70 expression in plasma (HSP70 [1]; patient with palate adenocarcinoma (confirmed PR), after onalespib alone): increase in soluble HSP70 expression; CL [2, 6]: 52.2 L/h/m^2; Vz [2, 6]: 754 L/m^2; CL [2, 7]: 58.4 L/h/m^2; Vz [2, 7]: 725 L/m^2; CL [2, 8]: 61.0 L/h/m^2; Vz [2, 8]: 706 L/m^2; CL [2, 9]: 51.3 L/h/m^2; Vz [2, 9]: 742 L/m^2; CL [2, 10]: 64.4 L/h/m^2; Vz [2, 10]: 891 L/m^2; CL [2, 11]: 65.6 L/h/m^2; Vz [2, 11]: 855 L/m^2; CL [2, 12]: 53.8 L/h/m^2; Vz [2, 12]: 804 L/m^2; CL [2, 13]: 57.5 L/h/m^2; Vz [2, 13]: 721 L/m^2; CL [2, 14]: 62.5 L/h/m^2; Vz [2, 14]: 743 L/m^2; CL [2, 15]: 47.7 L/h/m^2; Vz [2, 15]: 617 L/m^2; CL [2, 16]: 56.7 L/h/m^2; Vz [2, 16]: 606 L/m^2; CL [2, 17]: 53.1 L/h/m^2; Vz [2, 17]: 516 L/m^2; AUC ([2]; intravenous, AUC, DL1, C1D1, onalespib 40 mg/m^2 with AT7519 21 mg/m^2, n = 4, geometric mean): 621 ng·h/mL; AUC ([2]; intravenous, AUC, DL1, C1D11, onalespib 40 mg/m^2 with AT7519 21 mg/m^2, n = 2, geometric mean): 610 ng·h/mL; AUC ([2]; intravenous, AUC, DL2, C1D1, onalespib 80 mg/m^2 with AT7519 21 mg/m^2, n = 16, geometric mean): 1390 ng·h/mL; AUC ([2]; intravenous, AUC, DL2, C1D11, onalespib 80 mg/m^2 with AT7519 21 mg/m^2, n = 11, geometric mean): 1280 ng·h/mL; AUC ([2]; intravenous, AUC, DL3, C1D1, onalespib 80 mg/m^2 with AT7519 27 mg/m^2, n = 4, geometric mean): 1410 ng·h/mL; AUC ([2]; intravenous, AUC, DL3, C1D11, onalespib 80 mg/m^2 with AT7519 27 mg/m^2, n = 3, geometric mean): 1510 ng·h/mL; Cmax ([2]; intravenous, Cmax, DL1, C1D1, onalespib 40 mg/m^2 with AT7519 21 mg/m^2, n = 4, geometric mean): 146 ng/mL; Cmax ([2]; intravenous, Cmax, DL1, C1D11, onalespib 40 mg/m^2 with AT7519 21 mg/m^2, n = 2, geometric mean): 155 ng/mL; Cmax ([2]; intravenous, Cmax, DL2, C1D1, onalespib 80 mg/m^2 with AT7519 21 mg/m^2, n = 16, geometric mean): 331 ng/mL; Cmax ([2]; intravenous, Cmax, DL2, C1D11, onalespib 80 mg/m^2 with AT7519 21 mg/m^2, n = 11, geometric mean): 355 ng/mL; Cmax ([2]; intravenous, Cmax, DL3, C1D1, onalespib 80 mg/m^2 with AT7519 27 mg/m^2, n = 4, geometric mean): 331 ng/mL; Cmax ([2]; intravenous, Cmax, DL3, C1D11, onalespib 80 mg/m^2 with AT7519 27 mg/m^2, n = 3, geometric mean): 424 ng/mL; half-life ([2]; intravenous, t1/2,z, All dose levels, C0D1, onalespib alone, n = 27, geometric mean): 600 min; half-life ([2]; intravenous, t1/2,z, DL1, C1D1, onalespib 40 mg/m^2 with AT7519 21 mg/m^2, n = 4, geometric mean): 576 min; half-life ([2]; intravenous, t1/2,z, DL1, C1D11, onalespib 40 mg/m^2 with AT7519 21 mg/m^2, n = 2, geometric mean): 564 min; half-life ([2]; intravenous, t1/2,z, DL2, C1D1, onalespib 80 mg/m^2 with AT7519 21 mg/m^2, n = 16, geometric mean): 522 min; half-life ([2]; intravenous, t1/2,z, DL2, C1D11, onalespib 80 mg/m^2 with AT7519 21 mg/m^2, n = 11, geometric mean): 492 min; half-life ([2]; intravenous, t1/2,z, DL3, C1D1, onalespib 80 mg/m^2 with AT7519 27 mg/m^2, n = 4, geometric mean): 444 min; half-life ([2]; intravenous, t1/2,z, DL3, C1D11, onalespib 80 mg/m^2 with AT7519 27 mg/m^2, n = 3, geometric mean): 402 min; AUC ([2]; iv, 40 mg/m2, AUC, DL1, C0D1, onalespib 40 mg/m^2 IV alone, n = 5, geometric mean): 780 ng·h/mL; Cmax ([2]; iv, 40 mg/m2, Cmax, DL1, C0D1, onalespib 40 mg/m^2 IV alone, n = 5, geometric mean): 193 ng/mL; half-life ([2]; iv, 40 mg/m2, t1/2,z, DL1, C0D1, onalespib 40 mg/m^2 IV alone, n = 5, geometric mean): 600 min; AUC ([2]; iv, 80 mg/m2, AUC, DL2, C0D1, onalespib 80 mg/m^2 IV alone, n = 17, geometric mean): 1490 ng·h/mL; AUC ([2]; iv, 80 mg/m2, AUC, DL3, C0D1, onalespib 80 mg/m^2 IV alone, n = 5, geometric mean): 1680 ng·h/mL; Cmax ([2]; iv, 80 mg/m2, Cmax, DL2, C0D1, onalespib 80 mg/m^2 IV alone, n = 17, geometric mean): 349 ng/mL; Cmax ([2]; iv, 80 mg/m2, Cmax, DL3, C0D1, onalespib 80 mg/m^2 IV alone, n = 5, geometric mean): 487 ng/mL; half-life ([2]; iv, 80 mg/m2, t1/2,z, DL2, C0D1, onalespib 80 mg/m^2 IV alone, n = 17, geometric mean): 624 min; half-life ([2]; iv, 80 mg/m2, t1/2,z, DL3, C0D1, onalespib 80 mg/m^2 IV alone, n = 5, geometric mean): 540 min; RP2D as individual agent [3]: 120 mg/m^2; Maximally tolerated dose (MTD) of onalespib in the combination [4]: 80 mg/m^2; HSP70 protein expression in PBMCs (HSP70 [5]): Increased HSP70 protein expression
